“And” between values parts separate entries of the source, which are not always exact repeats. Equal values may be shown once.

The values that follow come from US8138194B2, “Fused bicyclic pyrimidine compounds as aurora kinase inhibitors” (National Health Research Institutes, priority 2008, dated 2012).

Assay [1] deals with T1, GST-tAurora A (123-401aa) fusion protein (Homo sapiens, UniProt O14965).
T1 construct: GST-tAurora A (123-401aa) fusion protein; made in house; host or cells: Sf9 insect cells (baculovirus, pBacPAK8)
T1 sequence (O14965 123-401): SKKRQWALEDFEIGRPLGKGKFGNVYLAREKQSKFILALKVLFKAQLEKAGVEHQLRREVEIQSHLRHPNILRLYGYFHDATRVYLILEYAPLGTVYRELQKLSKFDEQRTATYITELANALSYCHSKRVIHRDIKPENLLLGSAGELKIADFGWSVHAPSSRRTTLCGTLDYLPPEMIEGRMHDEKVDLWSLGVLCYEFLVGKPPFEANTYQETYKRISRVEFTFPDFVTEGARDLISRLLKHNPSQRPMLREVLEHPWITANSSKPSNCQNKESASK
The assay can be described thus: Aurora Kinase A luminescent kinase assay. Type of assay: biochemical. Particulars: IC50 (concentration of a test compound at which activity of 50% of Aurora A is inhibited).

The next assay has as its target T2, FLT3 (Homo sapiens, UniProt P36888).
T2 sequence (P36888 27-993): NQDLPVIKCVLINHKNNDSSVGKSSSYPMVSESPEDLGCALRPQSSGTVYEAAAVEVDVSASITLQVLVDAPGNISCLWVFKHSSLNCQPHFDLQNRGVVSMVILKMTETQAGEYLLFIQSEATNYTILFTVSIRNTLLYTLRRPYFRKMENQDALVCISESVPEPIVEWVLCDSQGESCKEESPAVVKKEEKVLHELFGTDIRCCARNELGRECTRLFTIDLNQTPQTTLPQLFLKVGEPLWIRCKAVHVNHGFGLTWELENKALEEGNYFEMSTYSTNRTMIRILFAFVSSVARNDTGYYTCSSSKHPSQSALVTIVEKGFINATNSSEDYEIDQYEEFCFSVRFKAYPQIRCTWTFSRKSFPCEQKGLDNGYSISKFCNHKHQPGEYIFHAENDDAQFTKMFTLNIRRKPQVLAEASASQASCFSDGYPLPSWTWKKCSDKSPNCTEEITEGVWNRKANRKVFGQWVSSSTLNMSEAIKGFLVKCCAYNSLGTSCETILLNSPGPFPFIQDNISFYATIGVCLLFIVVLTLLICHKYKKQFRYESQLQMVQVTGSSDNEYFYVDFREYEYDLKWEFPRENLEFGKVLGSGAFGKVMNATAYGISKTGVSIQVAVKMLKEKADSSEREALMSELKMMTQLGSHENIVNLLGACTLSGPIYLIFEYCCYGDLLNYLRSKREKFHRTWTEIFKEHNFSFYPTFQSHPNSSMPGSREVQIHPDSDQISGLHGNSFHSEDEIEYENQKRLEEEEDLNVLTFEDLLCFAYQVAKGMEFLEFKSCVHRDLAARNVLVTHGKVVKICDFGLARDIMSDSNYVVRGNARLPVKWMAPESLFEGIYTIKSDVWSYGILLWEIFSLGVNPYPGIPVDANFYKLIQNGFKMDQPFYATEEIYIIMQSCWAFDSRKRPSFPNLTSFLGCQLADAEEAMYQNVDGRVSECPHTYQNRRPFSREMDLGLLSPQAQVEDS
The assay can be described thus: Inhibition of other protein kinases: FLT3. Type of assay: biochemical.

For another assay, the target named is T3, PLK4 (Homo sapiens, UniProt O00444).
T3 sequence (O00444 1-970): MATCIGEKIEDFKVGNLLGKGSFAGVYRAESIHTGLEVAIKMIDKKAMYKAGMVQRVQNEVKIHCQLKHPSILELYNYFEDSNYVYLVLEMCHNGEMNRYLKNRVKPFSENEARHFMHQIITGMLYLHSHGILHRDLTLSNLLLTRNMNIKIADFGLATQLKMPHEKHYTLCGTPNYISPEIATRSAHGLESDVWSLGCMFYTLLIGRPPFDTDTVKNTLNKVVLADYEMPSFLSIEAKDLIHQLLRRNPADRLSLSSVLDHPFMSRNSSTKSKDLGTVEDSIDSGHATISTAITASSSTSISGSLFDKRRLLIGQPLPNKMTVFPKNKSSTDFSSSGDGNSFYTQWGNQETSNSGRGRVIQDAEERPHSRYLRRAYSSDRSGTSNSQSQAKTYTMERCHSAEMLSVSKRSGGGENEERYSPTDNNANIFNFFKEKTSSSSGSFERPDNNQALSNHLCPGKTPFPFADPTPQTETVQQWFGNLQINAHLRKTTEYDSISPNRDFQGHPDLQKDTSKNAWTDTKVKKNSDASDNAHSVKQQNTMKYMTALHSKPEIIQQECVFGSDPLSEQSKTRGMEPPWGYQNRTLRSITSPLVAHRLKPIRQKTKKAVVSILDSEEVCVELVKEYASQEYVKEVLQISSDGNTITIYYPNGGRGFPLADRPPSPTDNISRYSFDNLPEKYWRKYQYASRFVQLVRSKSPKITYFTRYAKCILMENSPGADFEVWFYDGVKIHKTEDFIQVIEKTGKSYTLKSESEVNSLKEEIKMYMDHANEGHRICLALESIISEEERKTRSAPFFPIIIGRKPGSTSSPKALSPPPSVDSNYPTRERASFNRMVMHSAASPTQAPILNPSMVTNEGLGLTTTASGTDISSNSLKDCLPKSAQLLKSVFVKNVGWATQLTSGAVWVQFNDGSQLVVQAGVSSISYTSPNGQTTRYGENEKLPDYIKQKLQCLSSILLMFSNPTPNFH
The assay can be described thus: Inhibition of other protein kinases: PLK4. Type of assay: biochemical.

A further assay addresses PDGFRB (Homo sapiens, UniProt P09619). The assay can be described thus: Inhibition of other protein kinases: PDGFRB. Type of assay: biochemical.
Another assay has as its system HCT-116 cells. The assay can be described thus: HCT-116 cell viability MTS assay. Type of assay: cell-based. Particulars: Homo sapiens, read-out: IC50 (concentration of a test compound which causes 50% of the cell death); HCT-116, 96-h incubation, MTS. The procedure:
HCT-116 cell viability was examined by the MTS assay (Promega, Madison, Wis., USA). 2000 HCT-116 cells in 100 μL McCoy's 5a medium were seeded in each well of a 96-well plate. After 96-h incubation with a test compound, the cells were incubated with 20 μL of a MTS/PMS mixture (MTS/PMS ratio: 20: 1) for 2 h at 37° C. in a humidified incubator with 5% CO2 to allow viable cells to convert the tetrazolium salt (MTS) into formazan. The amount/concentration of formazan, which indicates the number of live cells, was determined by measuring the absorbance at 490 nm using a PerkinElmer Victor2 plate reader (PerkinElmer, Shelton, Cont., USA).

The subject of another assay is HCT-116 xenografts. The assay can be described thus: In vivo anticancer activity, colon tumor xenograft mice (injected with HCT-116). Also noted: species or system nude mice. Particulars: for average tumor size: treated mice. On the procedure: In vivo efficacy of the compounds of this invention was assessed using colon tumor xenograft mice (injected with HCT-116), as described in Cancer Research 2004, 64, 4621-4628.
HCT-116 cells were grown as subcutaneous tumors in nude mice. When well-established HCT-116 xenografts were palpable with tumor size of ˜100 mm^3, mice were randomly assigned to three groups: a vehicle control group (10 mice), a positive control group (10 mice), and a treatment group (21 mice). Of the treated mice, ten received Compound 209 at a daily dosage of 5 mg/kg and eleven received the same compound at a daily dosage of 15 mg/kg of via IV injection through the tail veins for 5 days/week for 2 consecutive weeks (days 1-5 and 8-12). The positive control mice received VX-680 (a known anti-cancer compound) at a daily dosage of 50 mg/kg, also via IV injection through the tail veins for 5 days/week for 2 consecutive weeks (days 1-5 and 8-12).

Sequence of PDGFRB (P09619 33-1106, species assumed): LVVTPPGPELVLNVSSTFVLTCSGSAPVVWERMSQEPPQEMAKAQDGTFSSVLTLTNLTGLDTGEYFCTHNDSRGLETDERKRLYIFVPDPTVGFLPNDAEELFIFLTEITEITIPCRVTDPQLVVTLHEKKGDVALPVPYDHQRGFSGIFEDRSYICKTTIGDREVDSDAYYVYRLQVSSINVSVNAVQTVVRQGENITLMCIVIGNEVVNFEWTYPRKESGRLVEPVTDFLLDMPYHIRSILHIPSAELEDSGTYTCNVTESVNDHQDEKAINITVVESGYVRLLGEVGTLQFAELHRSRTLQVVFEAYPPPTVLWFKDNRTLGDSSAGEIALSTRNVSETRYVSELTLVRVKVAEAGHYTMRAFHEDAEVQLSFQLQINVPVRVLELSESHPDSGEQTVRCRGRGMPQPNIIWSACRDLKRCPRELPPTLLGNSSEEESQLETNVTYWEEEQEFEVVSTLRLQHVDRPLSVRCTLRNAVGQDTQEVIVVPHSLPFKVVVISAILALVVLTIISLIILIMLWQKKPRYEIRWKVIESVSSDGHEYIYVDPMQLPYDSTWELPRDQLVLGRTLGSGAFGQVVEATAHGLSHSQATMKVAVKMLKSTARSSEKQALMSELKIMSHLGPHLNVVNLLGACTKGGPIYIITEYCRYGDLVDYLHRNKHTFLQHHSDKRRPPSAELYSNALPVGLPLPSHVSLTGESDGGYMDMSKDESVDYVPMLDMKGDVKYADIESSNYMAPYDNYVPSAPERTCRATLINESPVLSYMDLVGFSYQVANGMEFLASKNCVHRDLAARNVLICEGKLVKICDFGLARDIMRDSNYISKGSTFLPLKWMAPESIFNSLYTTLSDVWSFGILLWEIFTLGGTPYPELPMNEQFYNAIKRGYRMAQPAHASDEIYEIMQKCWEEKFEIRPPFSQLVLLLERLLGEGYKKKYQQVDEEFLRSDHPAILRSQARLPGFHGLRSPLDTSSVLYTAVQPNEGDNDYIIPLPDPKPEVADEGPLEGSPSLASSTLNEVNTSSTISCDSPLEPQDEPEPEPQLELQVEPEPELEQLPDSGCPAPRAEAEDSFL

As for `O=C(Nc1ccccc1)Nc1ccc(CCNc2ncnc3oc(-c4ccccc4)c(Cl)c23)cc1` [Compound 82], the IC50 is 45 to 400 nM and < 1000 nM in assay [1]; 100 to 900 nM with HCT-116 cells. Moreover, the “inhibits the activity of FLT3” value against FLT3 is on record as “inhibits”. The “inhibits the activity of PLK4” value on PLK4 is recorded as “inhibits”. For the same compound, on PDGFRB, the “inhibits the activity of PDGFRB” value is given as “inhibits”.

Turning to `CN(C)Cc1ccccc1NC(=O)Nc1ccc(CCNc2ncnc3oc(-c4ccccc4)c(Cl)c23)cc1` [Compound 209], the IC50 was < 1000 nM and 45 to 400 nM in assay [1]; below 100 nM in the assay on HCT-116 cells. Also, the tumor growth suppression entry in the assay on HCT-116 xenografts (5 mg/kg daily, IV, days 1-5 and 8-12) is “suppressed tumor growth insignificantly”. Moreover, the “inhibition of tumor growth” value with HCT-116 xenografts (15 mg/kg daily, IV, days 1-5 and 8-12) is “inhibition of tumor growth comparable to that of VX-680”. Also, the average tumor size in the assay on HCT-116 xenografts (eleventh day (dose group not stated)) is listed as 654 mm^3; with HCT-116 xenografts (fourth day (dose group not stated)) it was 381 mm^3.

In the case of `O=C(Nc1ccccc1)Nc1ccc(CCNc2ncnc3oc(-c4ccccc4)c(CCCCO)c23)cc1` [Compound 251], the IC50 is below 1000 nM in assay [1] and 100 to 900 nM in the assay with HCT-116 cells.

Consider `CN(C)Cc1cccc(NC(=O)Nc2ccc(CCNc3ncnc4oc(-c5ccccc5)c(Cl)c34)cc2)c1` [Compound 252], for which the IC50 in assay [1] is below 1000 nM; in the assay with HCT-116 cells, 100 to 900 nM.

Consider `CN(C)Cc1ccc(NC(=O)Nc2ccc(CCNc3ncnc4oc(-c5ccccc5)c(Cl)c34)cc2)cc1` [Compound 253], for which the IC50 in assay [1] was 45 to 400 nM and < 1000 nM; in the assay with HCT-116 cells it was 100 to 900 nM.

In the case of `Cc1oc2ncnc(NCCc3cnc(NC(=O)Nc4ccccc4)s3)c2c1C` [Compound 254], the IC50 in assay [1] is 45 to 400 nM and < 1000 nM; with HCT-116 cells it was 100 to 900 nM.

As for `O=C(Nc1ccccc1)Nc1ncc(CCNc2ncnc3oc(-c4ccccc4)cc23)s1` [Compound 255], the IC50 in assay [1] is below 1000 nM; in the assay with HCT-116 cells it was 100 to 900 nM.

Consider `O=C(Nc1ccccc1)Nc1ncc(CCNc2ncnc3oc(-c4ccccc4)c(Cl)c23)s1` [Compound 256], for which the IC50 was 45 to 400 nM and < 1000 nM in assay [1]; 100 to 900 nM in the assay on HCT-116 cells.

Take `Cc1cc(Nc2cc(N3CCN(C)CC3)nc(Sc3ccc(NC(=O)C4CC4)cc3)n2)n[nH]1` [VX-680, reference compound]: in the assay on HCT-116 xenografts (50 mg/kg daily, IV, days 1-5 and 8-12, positive control), the “inhibition of tumor growth” value is given as “inhibition of tumor growth”.
